# Where “and” joins values, the source holds several entries; their conditions need not be identical. Identical values can stand only once. Like-named read-outs stand apart in the source and are kept apart here.
# System: mtrC-lacZ expression
# Format: cell-based, Neisseria gonorrhoeae
# Conditions: for Miller units, single well / Miller units, Mean: upper 4-row block; for Miller units, single well: individual replicate; for Miller units, Mean: mean of 4 wells; for β-galactosidase activity, single replicate: ΔmtrR + mtrR R176E in trans; for β-galactosidase activity, individual replicate / β-galactosidase activity, Miller units (single replicate): mtrR WT in cis; for β-galactosidase activity, individual replicate: single replicate values, second (right) block
# [1] = 6.25 µM hormone, plate columns 1-6 (WT)
# [2] = 6.25 µM hormone, plate columns 7-12 (second strain, not WT)
# [3] = 12.5 µM hormone, plate columns 1-6 (WT)
# [4] = 12.5 µM hormone, plate columns 7-12 (second strain, not WT)
# [5] = 25 µM hormone, plate columns 7-12 (second strain, not WT)
# [6] = 50 µM hormone, plate columns 1-6 (WT)
# [7] = 50 µM hormone, plate columns 7-12 (second strain, not WT)
# [8] = mtrC-lacZ, ΔmtrR + mtrR D171A in trans, 6.25 µM hormone, single replicate
# [9] = mtrC-lacZ, ΔmtrR + mtrR D171A in trans, 12.5 µM hormone, single replicate
# [10] = mtrC-lacZ, ΔmtrR + mtrR D171A in trans, 25 µM hormone, single replicate
# [11] = mtrC-lacZ, ΔmtrR + mtrR D171A in trans, 50 µM hormone, single replicate
# [12] = mtrC-lacZ, ΔmtrR + mtrR WT in trans, 6.25 µM hormone, single replicate
# [13] = mtrC-lacZ, ΔmtrR + mtrR WT in trans, 12.5 µM hormone, single replicate
# [14] = mtrC-lacZ, ΔmtrR + mtrR WT in trans, 25 µM hormone, single replicate
# [15] = mtrC-lacZ, ΔmtrR + mtrR WT in trans, 50 µM hormone, single replicate
smiles,measurement,setting,value
"CC(=O)[C@H]1CC[C@H]2[C@@H]3CCC4=CC(=O)CC[C@]4(C)[C@H]3CC[C@]12C [Progesterone, progesterone]",Miller units,"6.25 µM hormone, plate columns 1-6 (WT), plate rows 1-4 (mtrC), single well",82 Miller units and 48 Miller units and 89 Miller units
same,"Miller units, single well",[1],82 Miller units and 48 Miller units and 89 Miller units and 47 Miller units
same,"Miller units, Mean",[1],66 Miller units
same,Miller units,"6.25 µM hormone, plate columns 7-12 (second strain not given), plate rows 1-4 (mtrC), single well",315 Miller units and 180 Miller units and 172 Miller units
same,"Miller units, single well",[2],315 Miller units and 180 Miller units and 172 Miller units and 146 Miller units
same,"Miller units, Mean",[2],203 Miller units
same,Miller units,"12.5 µM hormone, plate columns 1-6 (WT), plate rows 1-4 (mtrC), single well",112 Miller units and 91 Miller units and 70 Miller units
same,"Miller units, single well",[3],112 Miller units and 91 Miller units and 70 Miller units and 43 Miller units
same,"Miller units, Mean",[3],79 Miller units
same,Miller units,"12.5 µM hormone, plate columns 7-12 (second strain not given), plate rows 1-4 (mtrC), single well",228 Miller units and 168 Miller units and 142 Miller units
same,"Miller units, single well",[4],228 Miller units and 168 Miller units and 142 Miller units and 163 Miller units
same,"Miller units, Mean",[4],175 Miller units
same,Miller units,"25 µM hormone, plate columns 1-6 (WT), plate rows 1-4 (mtrC), single well",152 Miller units and 193 Miller units
same,"Miller units, single well","25 µM hormone, plate columns 1-6 (WT)",152 Miller units and 193 Miller units and 125 Miller units
same,Miller units,"25 µM hormone, plate columns 7-12 (second strain not given), plate rows 1-4 (mtrC), single well",253 Miller units and 170 Miller units and 160 Miller units
same,"Miller units, single well",[5],253 Miller units and 170 Miller units and 160 Miller units and 118 Miller units
same,"Miller units, Mean",[5],175 Miller units
same,Miller units,"50 µM hormone, plate columns 1-6 (WT), plate rows 1-4 (mtrC), single well",185 Miller units and 157 Miller units and 126 Miller units
same,"Miller units, single well",[6],185 Miller units and 157 Miller units and 126 Miller units and 75 Miller units
same,"Miller units, Mean",[6],136 Miller units
same,Miller units,"50 µM hormone, plate columns 7-12 (second strain not given), plate rows 1-4 (mtrC), single well",186 Miller units and 138 Miller units and 118 Miller units
same,"Miller units, single well",[7],186 Miller units and 138 Miller units and 118 Miller units and 96 Miller units
same,"Miller units, Mean",[7],134 Miller units
same,induction of mtrC expression,"complemented (MtrR+) strains, increasing hormone",could be induced
same,induction of mtrC expression,loss of MtrR or MtrR-D171A strain,abrogated
same,Miller units,[8],150 Miller units and 142 Miller units
same,β-galactosidase activity (Miller units),[8],147 Miller units and 144 Miller units and 150 Miller units and 142 Miller units
same,Miller units,[9],139 Miller units and 154 Miller units
same,β-galactosidase activity (Miller units),[9],146 Miller units and 130 Miller units and 139 Miller units and 154 Miller units
same,Miller units,[10],164 Miller units
same,β-galactosidase activity (Miller units),[10],161 Miller units and 184 Miller units and 164 Miller units
same,Miller units,[11],111 Miller units and 106 Miller units
same,β-galactosidase activity (Miller units),[11],114 Miller units and 91 Miller units and 111 Miller units and 106 Miller units
same,Miller units,[12],71 Miller units and 75 Miller units and 104 Miller units and 85 Miller units
same,β-galactosidase activity (Miller units),[12],71 Miller units and 75 Miller units and 104 Miller units and 85 Miller units
same,Miller units,[13],90 Miller units and 80 Miller units and 98 Miller units and 88 Miller units
same,β-galactosidase activity (Miller units),[13],90 Miller units and 80 Miller units and 98 Miller units and 88 Miller units
same,Miller units,[14],120 Miller units and 101 Miller units and 124 Miller units and 107 Miller units
same,β-galactosidase activity (Miller units),[14],120 Miller units and 101 Miller units and 124 Miller units and 107 Miller units
same,Miller units,[15],125 Miller units and 123 Miller units and 130 Miller units and 139 Miller units
same,β-galactosidase activity (Miller units),[15],125 Miller units and 123 Miller units and 130 Miller units and 139 Miller units
same,β-galactosidase activity (Miller units),"mtrC-lacZ, ΔmtrR strain, 6.25 µM hormone, single replicate",239 Miller units
same,β-galactosidase activity (Miller units),"mtrC-lacZ, ΔmtrR strain, 12.5 µM hormone, single replicate",205 Miller units
same,β-galactosidase activity (Miller units),"mtrC-lacZ, ΔmtrR strain, 25 µM hormone, single replicate",223 Miller units
same,β-galactosidase activity (Miller units),"mtrC-lacZ, ΔmtrR strain, 50 µM hormone, single replicate",197 Miller units
same,"β-galactosidase activity, single replicate","mtrCDE block (c1-c37), 6.25 µM",221 Miller units and 281 Miller units and 181 Miller units and 184 Miller units
same,"β-galactosidase activity, single replicate","mtrCDE block (c1-c37), 12.5 µM",215 Miller units and 235 Miller units and 172 Miller units and 208 Miller units
same,"β-galactosidase activity, single replicate","mtrCDE block (c1-c37), 25 µM",255 Miller units and 287 Miller units and 177 Miller units and 185 Miller units
same,"β-galactosidase activity, single replicate","mtrCDE block (c1-c37), 50 µM",296 Miller units and 219 Miller units and 227 Miller units and 184 Miller units
same,"β-galactosidase activity, individual replicate",6.25 µM hormone,41 Miller units and 35 Miller units
same,"β-galactosidase activity, Miller units (single replicate)","6.25 µM, first data set (c15-c36)",115 Miller units and 113 Miller units and 101 Miller units and 103 Miller units
same,"β-galactosidase activity, Miller units (single replicate)","6.25 µM, second data set (c53-c74)",37 Miller units and 29 Miller units
same,"β-galactosidase activity, individual replicate",12.5 µM hormone,61 Miller units and 54 Miller units
same,"β-galactosidase activity, Miller units (single replicate)","12.5 µM, first data set (c15-c36)",153 Miller units and 144 Miller units and 132 Miller units
same,"β-galactosidase activity, Miller units (single replicate)","12.5 µM, second data set (c53-c74)",41 Miller units and 34 Miller units
same,"β-galactosidase activity, individual replicate",25 µM hormone,90 Miller units and 65 Miller units
same,"β-galactosidase activity, Miller units (single replicate)","25 µM, first data set (c15-c36)",256 Miller units and 186 Miller units and 175 Miller units and 160 Miller units
same,"β-galactosidase activity, Miller units (single replicate)","25 µM, second data set (c53-c74)",66 Miller units and 58 Miller units
same,"β-galactosidase activity, individual replicate",50 µM hormone,111 Miller units and 114 Miller units
same,"β-galactosidase activity, Miller units (single replicate)","50 µM, first data set (c15-c36)",228 Miller units and 242 Miller units and 200 Miller units and 220 Miller units
same,"β-galactosidase activity, Miller units (single replicate)","50 µM, second data set (c53-c74)",91 Miller units and 73 Miller units
same,"β-galactosidase activity, single replicate","second block of sheet (c39-c76), 6.25 µM",130 Miller units and 89 Miller units and 76 Miller units and 71 Miller units
same,"β-galactosidase activity, single replicate","second block of sheet (c39-c76), 12.5 µM",125 Miller units and 104 Miller units and 71 Miller units and 67 Miller units
same,"β-galactosidase activity, single replicate","second block of sheet (c39-c76), 25 µM",151 Miller units and 130 Miller units and 84 Miller units and 80 Miller units
same,"β-galactosidase activity, single replicate","second block of sheet (c39-c76), 50 µM",130 Miller units and 108 Miller units and 88 Miller units and 66 Miller units
